Data: the NIST ThermoML archive (doi:10.1021/je200068x)
Numbers after ± are expanded uncertainties.

Settings: for surface tension liquid-gas: Drop weight; for mass density: 101.33 kPa, Liquid

Structure (SMILES)	surface tension liquid-gas (293.15 K)	mass density (293.15 K)	surface tension liquid-gas (298.15 K)	mass density (298.15 K)	surface tension liquid-gas (303.15 K)	mass density (303.15 K)	surface tension liquid-gas (308.15 K)	mass density (308.15 K)	surface tension liquid-gas (313.15 K)	mass density (313.15 K)	surface tension liquid-gas (318.15 K)	mass density (318.15 K)	surface tension liquid-gas (323.15 K)	mass density (323.15 K)	surface tension liquid-gas (328.15 K)	mass density (328.15 K)	surface tension liquid-gas (333.15 K)	mass density (333.15 K)	surface tension liquid-gas (338.15 K)	mass density (338.15 K)	further results
C[n+]1ccn(CCCN)c1.F[B-](F)(F)F [1-(3-aminopropyl)-3-methyl-1H-imidazolium tetrafluoroborate]	47.2 ± 0.5 mN/m	1358.01 ± 1.8 kg/m3	47.1 ± 0.5 mN/m	1354.6 ± 1.7 kg/m3	46.4 ± 0.5 mN/m	1349.29 ± 1.7 kg/m3	46.2 ± 0.5 mN/m	1345.68 ± 1.7 kg/m3	46.1 ± 0.5 mN/m	1343.18 ± 1.7 kg/m3	45.4 ± 0.5 mN/m	1336.97 ± 1.7 kg/m3	45.2 ± 0.5 mN/m	1333.57 ± 1.7 kg/m3	44.8 ± 0.5 mN/m	1328.96 ± 1.6 kg/m3	44.6 ± 0.5 mN/m	1325.35 ± 1.6 kg/m3	44.1 ± 0.5 mN/m	1321.05 ± 1.6 kg/m3	surface tension liquid-gas (343.15 K): 43.8 ± 0.5 mN/m; mass density (343.15 K): 1317.25 ± 1.6 kg/m3; surface tension liquid-gas (348.15 K): 43.4 ± 0.5 mN/m; mass density (348.15 K): 1313.04 ± 1.6 kg/m3; surface tension liquid-gas (353.15 K): 43.1 ± 0.5 mN/m; mass density (353.15 K): 1309.44 ± 1.6 kg/m3
Cn1cc[n+](CCN)c1.F[B-](F)(F)F [3-(2-aminoethyl)-1-methyl-1H-imidazolium tetrafluoroborate]	53.8 ± 0.5 mN/m	1427.12 ± 2 kg/m3	53.5 ± 0.5 mN/m	1422.31 ± 2 kg/m3	53.2 ± 0.5 mN/m	1418.96 ± 2 kg/m3	52.4 ± 0.5 mN/m	1413.23 ± 2 kg/m3	52 ± 0.5 mN/m	1409.18 ± 1.9 kg/m3	51.5 ± 0.5 mN/m	1404.69 ± 1.9 kg/m3	51.3 ± 0.5 mN/m	1401.78 ± 1.9 kg/m3	50.8 ± 0.5 mN/m	1395.42 ± 1.9 kg/m3	50.3 ± 0.5 mN/m	1391.77 ± 1.9 kg/m3	50.2 ± 0.5 mN/m	1388.54 ± 1.9 kg/m3	surface tension liquid-gas (343.15 K): 49.8 ± 0.5 mN/m; mass density (343.15 K): 1384.79 ± 1.9 kg/m3; surface tension liquid-gas (348.15 K): 49.4 ± 0.5 mN/m; mass density (348.15 K): 1380.94 ± 1.9 kg/m3; surface tension liquid-gas (353.15 K): 48.8 ± 0.5 mN/m; mass density (353.15 K): 1375.11 ± 1.8 kg/m3
